Data set [1] has as its target T1, human Nectin-4 (Homo sapiens, UniProt Q96NY8).
T1 sequence (Q96NY8 32-510): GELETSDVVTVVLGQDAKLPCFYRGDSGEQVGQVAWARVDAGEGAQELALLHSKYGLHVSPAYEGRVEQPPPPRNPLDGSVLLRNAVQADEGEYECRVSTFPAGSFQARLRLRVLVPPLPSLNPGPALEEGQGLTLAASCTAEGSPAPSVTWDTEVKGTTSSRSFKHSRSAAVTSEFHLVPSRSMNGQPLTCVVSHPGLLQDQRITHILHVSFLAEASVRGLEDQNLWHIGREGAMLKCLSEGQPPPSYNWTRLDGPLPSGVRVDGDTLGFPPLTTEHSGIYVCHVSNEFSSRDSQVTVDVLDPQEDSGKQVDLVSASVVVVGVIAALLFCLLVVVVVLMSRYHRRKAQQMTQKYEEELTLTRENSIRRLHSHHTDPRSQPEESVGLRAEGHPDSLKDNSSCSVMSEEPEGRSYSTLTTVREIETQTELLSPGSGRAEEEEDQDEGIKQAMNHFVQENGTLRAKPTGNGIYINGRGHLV
In words: Nectin-4 competition binding assay (fluorescence polarisation). As to conditions: competition with fluorescent peptide SEQ ID NO: 217; read-out: Ki. In short, it runs like this: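 Ki derived by cubic-equation fit of mP data, with tracer peptide concentration, its Kd and Nectin-4 level as fixed inputs. Competition set up by adding 2-fold peptide dilutions (≤5% DMSO), then Nectin-4, then fluorescent peptide; polarisation measured as for direct binding.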
For orientation: In fluorescence polarisation assays a small probe gives low polarisation when free and higher when bound to something large.

Data set [2] addresses T2, human Nectin-4 (Homo sapiens, UniProt Q96NY8).
T2 sequence (Q96NY8 32-349): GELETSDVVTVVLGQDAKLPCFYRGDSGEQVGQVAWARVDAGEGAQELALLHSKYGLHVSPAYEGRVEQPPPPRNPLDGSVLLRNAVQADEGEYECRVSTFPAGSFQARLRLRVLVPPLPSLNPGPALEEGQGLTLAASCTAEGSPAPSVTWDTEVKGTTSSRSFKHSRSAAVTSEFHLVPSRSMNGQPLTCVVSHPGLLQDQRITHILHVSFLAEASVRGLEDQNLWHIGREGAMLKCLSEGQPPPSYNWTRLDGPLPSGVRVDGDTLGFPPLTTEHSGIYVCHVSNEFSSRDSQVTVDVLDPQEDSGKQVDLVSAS
In words: Nectin-4 Biacore SPR binding assay.

Data set [3] has as its target T1, human Nectin-4. In words: Nectin-4 direct binding assay (fluorescence polarisation). As to conditions: fluorescently tagged peptide, TATA scaffold. The protocol: Affinity of the peptides of the invention for human Nectin-4 (Ki) was determined using a fluorescence polarisation assay, in accordance with the methods disclosed in WO 2016/067035. Peptides of the invention with a fluorescent tag (either fluorescein, SIGMA or Alexa Fluor488™, Fisher Scientific) were diluted to 2.5 nM in PBS with 0.01% tween 20 or 50 mM HEPES with 100 mM NaCl and 0.01% tween pH 7.4 (both referred to as assay buffer). This was combined with a titration of protein in the same assay buffer as the peptide to give 1 nM peptide in a total volume of 25 μL in a black walled and bottomed low bind low volume 384 well plates, typically 5 μL assay buffer, 10 μL protein then 10 μL fluorescent peptide. […] Measurements were conducted on a BMG PHERAstar FS equipped with an “FP 485 520 520” optic module which excites at 485 nm and detects parallel and perpendicular emission at 520 nm. The PHERAstar FS was set at 25° C. with 200 flashes per well and a positioning delay of 0.1 second, with each well measured at 5 to 10 minute intervals for 60 minutes. The gain used for analysis was determined for each tracer at the end of the 60 minutes where there was no protein in the well. Data was analysed using Systat Sigmaplot version 12.0. mP values were fit to a user defined quadratic equation to generate a Kd value: f=ymin+(ymax−ymin)/Lig*((x+Lig+Kd)/2-sqrt((((x+Lig+Kd)/2)^2)−(Lig*x))). […]

The next data set concerns HT-1376 xenograft. In words: Example 2: in vivo efficacy in HT-1376 xenograft (bladder cancer model) in CB17-SCID mice. As to conditions: 1 mg/kg.

*1 amine or outer side, *2 acyl side, *3 side chain or, on linkers, in order; H or OH if unused. Where a SMILES comes first, the peptide text is derived from it. Bridges are numbered along the chain shown (N, C = ends). Roman numbers before positions name the chains, in order. [ ]: non-standard residue; d: D form. The star is where a group is joined. TATA = O=C(CC[*:1])N1CN(C(=O)CC[*:2])CN(C(=O)CC[*:3])C1; Dolaproine = CO[C@@H]([C@@H]1CCCN1)[C@@H](C)C(=O)O; Dil = CC[C@H](C)[C@H](NC)[C@@H](CC(=O)O)OC; 1Nal = N[C@@H](Cc1cccc2ccccc12)C(=O)O; X3 = O=C(CCCC(=O)[*:2])NCCC(=O)[*:1]; PABC = O=C(OCc1ccc(N[*:1])cc1)[*:2]; X4 = C[C@@H](N*)[C@@H](O)c1ccccc1; Cya = N[C@@H](CS(=O)(=O)O)C(=O)O; Hyp = O=C(O)[C@@H]1C[C@@H](O)CN1; hArg = N=C(N)NCCCC[C@H](N)C(=O)O; Cit = NC(=O)NCCC[C@H](N)C(=O)O; NMeV = CN[C@H](C(=O)O)C(C)C; βAla = NCCC(=O)O; Sar = CNCC(=O)O

This is an account of results in US12459974B2, “Bicyclic peptide ligands specific for Nectin-4” (priority 2018, dated 2025).

Procedure for HT-1376 xenograft: The major endpoint was to see if the tumor growth could be delayed or mice could be cured. Tumor volume was measured three times weekly in two dimensions using a caliper, and the volume was expressed in mm^3 using the formula: V=0.5 a×b^2 where a and b are the long and short diameters of the tumor, respectively. The tumor size was then used for calculations of T/C value. The T/C value (in percent) is an indication of antitumor effectiveness; T and C are the mean volumes of the treated and control groups, respectively, on a given day. TGI was calculated for each group using the formula: TGI (%)=[1−(Ti−T0)/(Vi−V0)]×100; Ti is the average tumor volume of a treatment group on a given day, T0 is the average tumor volume of the treatment group on the day of treatment start, Vi is the average tumor volume of the vehicle control group on the same day with Ti, and V0 is the average tumor volume of the vehicle group on the day of treatment start.
A one-way ANOVA was performed to compare tumor volume among groups, and when a significant F-statistics (a ratio of treatment variance to the error variance) was obtained, comparisons between groups were carried out with Games-Howell test. […] P<0.05 was considered to be statistically significant.
• Species: Mus Musculus • Strain: CB17-SCID • Age: 6-8 weeks • Sex: female • Body weight: 18-22 g • Number of animals: 21-41 mice plus spare • Animal supplier: Shanghai LC Laboratory Animal Co., LTD.
The HT-1376 tumor cells were maintained in vitro as a monolayer culture in EMEM medium supplemented with 10% heat inactivated fetal bovine serum at 37° C. in an atmosphere of 5% CO2 in air. The tumor cells were routinely subcultured twice weekly by trypsin-EDTA treatment.
Each mouse was inoculated subcutaneously at the right flank with HT-1376 tumor cells (5×10^6) in 0.2 ml of PBS with matrigel (1:1) for tumor development. Animals were randomized when the average tumor volume reached 153-164 mm^3.
Tumor growth inhibition rate for Test articles in the HT-1376 xenograft model was calculated based on tumor volume measurements at day 21 after the start of treatment.

As usually defined, the Ki is a dissociation constant, usually derived from enzyme kinetics or from competition with a known ligand. Broadly, the Kd is the free concentration of one partner at which half of the binding sites on the other are occupied at equilibrium, for simple one-to-one binding. Higher therefore signals lower affinity. As to `CC[C@H](C)[C@@H]1NC(=O)[C@@H]2CCCN2C(=O)[C@H](Cc2c[nH]c3ccccc23)NC(=O)[C@H](CO)NC(=O)[C@H](Cc2c[nH]c3ccccc23)NC(=O)[C@H](CC(N)=O)NC(=O)[C@H](CCCCN)NC(=O)[C@H](CCSC)NC(=O)[C@@H]2CSCCC(=O)N3CN(CN(C3)C(=O)CCSC[C@H](NC(C)=O)C(=O)N3CCC[C@H]3C(=O)N[C@@H](Cc3ccccc3)C(=O)NCC(=O)N2)C(=O)CCSC[C@@H](C(N)=O)NC(=O)[C@H](Cc2c[nH]c3ccccc23)NC1=O` [BCY7390, Ac-(SEQ ID NO: 1)] (Ac-CPFGCMKNWSWPIWC-NH2; linker 1-5-15 via TATA; C-terminus assumed), the Ki on human Nectin-4 [1] came out at 17.1 nM. The compound also showed a Kd on human Nectin-4 [2] of 40.3 nM.

As for `CC(=O)N[C@H]1CSCCC(=O)N2CN3CN(C2)C(=O)CCSC[C@H](NC(=O)[C@@H](CC(=O)O)NC(=O)[C@H](Cc2ccccc2)NC(=O)[C@@H]2CCCN2C1=O)C(=O)N[C@@H](CC(C)C)C(=O)N[C@@H](CCCCNC(=N)N)C(=O)N[C@@H](CC(N)=O)C(=O)N[C@@H](Cc1c[nH]c2ccccc12)C(=O)N[C@@H](CO)C(=O)N[C@@H]([C@@H](C)O)C(=O)N1CCC[C@H]1C(=O)N1CCC[C@H]1C(=O)N[C@@H](Cc1c[nH]c2ccccc12)C(=O)N[C@H](C(N)=O)CSCCC3=O` [BCY8038, Ac-(SEQ ID NO: 160)] (Ac-CPF[dD]CL[hArg]NWSTPPWC-NH2; linker 1-5-15 via TATA; C-terminus assumed), the inhibition constant (Ki) on human Nectin-4 [1] was found to be 8 nM. Further, on human Nectin-4 [2], binding was characterised by a dissociation constant (Kd) of 44.5 nM.

As to `CC(=O)N[C@H]1CSCCC(=O)N2CN3CN(C2)C(=O)CCSC[C@H](NC(=O)[C@H](CC(=O)O)NC(=O)[C@H](Cc2ccc(O)cc2)NC(=O)[C@H](CO)NC(=O)[C@H]([C@@H](C)O)NC(=O)[C@H]([C@@H](C)O)NC(=O)[C@H](C(C)C)NC1=O)C(=O)N[C@@H](Cc1c[nH]c2ccccc12)C(=O)N[C@@H](C(C)C)C(=O)N[C@@H]([C@@H](C)O)C(=O)N[C@@H](CC(C)C)C(=O)NCC(=O)N[C@@H](Cc1c[nH]cn1)C(=O)N[C@H](C(=O)N[C@@H](CO)C(=O)N[C@@H](CCCNC(=N)N)C(=O)N[C@@H](Cc1ccccc1)C(N)=O)CSCCC3=O` [BCY7393, Ac-(SEQ ID NO: 37)-SRF] (Ac-CVTTSYDCWVTLGHCSRF-NH2; linker 1-8-15 via TATA; C-terminus assumed), the Ki on human Nectin-4 [1] was 232 nM. Also, the Kd at human Nectin-4 [2] worked out at 1380 nM.

`CSCC[C@@H]1NC(=O)[C@@H]2CSCCC(=O)N3CN(CN(C3)C(=O)CCSC[C@H](NC(=O)CN(C)C(=O)CN(C)C(=O)CN(C)C(=O)CN(C)C(=O)CN(C)C(=O)CN(C)C(=O)CN(C)C(=O)CN(C)C(=O)CN(C)C(=O)CN(C)C(=O)CCNC(C)=O)C(=O)N3CCC[C@H]3C(=O)N[C@@H](Cc3cccc4ccccc34)C(=O)N[C@H](CC(=O)O)C(=O)N2)C(=O)CCSC[C@@H](C(N)=O)NC(=O)[C@H](Cc2c[nH]c3ccccc23)NC(=O)[C@@H]2C[C@@H](O)CN2C(=O)[C@@H]2CCCN2C(=O)[C@H]([C@@H](C)O)NC(=O)[C@H](CO)NC(=O)[C@H](Cc2c[nH]c3ccccc23)NC(=O)[C@H](CC(=O)O)NC(=O)[C@H](CS(=O)(=O)O)NC1=O` [BCY8277, Ac-[B-Ala][Sar10]-(SEQ ID NO: 178)] (Ac-[βAla][Sar][Sar][Sar][Sar][Sar][Sar][Sar][Sar][Sar][Sar]CP[1Nal][dD]CM[Cya]DWSTP[Hyp]WC-NH2; linker 12-16-26 via TATA; C-terminus assumed) had a Kd on human Nectin-4 [2] of 5.99 nM.

`CC[C@H](C)[C@@H]1NC(=O)[C@H](CCCNC(=N)N)NC(=O)[C@H](CC(=O)O)NC(=O)[C@@H]2CSCCC(=O)N3CN(CN(C3)C(=O)CCSC[C@@H](C(=O)N[C@@H](C)C(N)=O)NC1=O)C(=O)CCSC[C@H](NC(=O)[C@H](Cc1c[nH]c3ccccc13)NC(=O)[C@H](CC(=O)O)NC(=O)[C@@H](N)C(C)C)C(=O)N[C@@H](C)C(=O)N1CCC[C@H]1C(=O)N[C@@H](CC(C)C)C(=O)N[C@@H](CC(=O)O)C(=O)N[C@@H](CC(=O)O)C(=O)N[C@@H](Cc1ccc(O)cc1)C(=O)N[C@@H](Cc1c[nH]c3ccccc13)C(=O)N2` [BCY462, VDW-(SEQ ID NO: 33)-A] (H-VDWCAPLDDYWCDRICA-NH2; linker 4-12-16 via TATA; N-terminus and C-terminus assumed) registered an inhibition constant Ki on human Nectin-4 [3] of 269 nM.

For the compound `CC[C@H](C)[C@@H]1NC(=O)[C@@H]2CCCN2C(=O)[C@H](Cc2c[nH]c3ccccc23)NC(=O)[C@H](CO)NC(=O)[C@H](Cc2c[nH]c3ccccc23)NC(=O)[C@H](CC(N)=O)NC(=O)[C@H](CCCCN)NC(=O)[C@H](CCSC)NC(=O)[C@@H]2CSCCC(=O)N3CN(CN(C3)C(=O)CCSC[C@H](NC(C)=O)C(=O)N3CCC[C@H]3C(=O)N[C@@H](Cc3ccccc3)C(=O)NCC(=O)N2)C(=O)CCSC[C@@H](C(=O)N[C@H](C(=O)N[C@@H](CC(N)=O)C(=O)N[C@@H](CCCCN)C(N)=O)[C@@H](C)O)NC(=O)[C@H](Cc2c[nH]c3ccccc23)NC1=O` [BCY7391, Ac-(SEQ ID NO: 1)-TNK] (Ac-CPFGCMKNWSWPIWCTNK-NH2; linker 1-5-15 via TATA; C-terminus assumed), the Ki at human Nectin-4 [1] stood at 13.3 nM. On human Nectin-4 [2], this compound registered a Kd of 59.8 nM.

Regarding `CC[C@H](C)[C@@H]1NC(=O)[C@@H]2CCCN2C(=O)[C@H](Cc2c[nH]c3ccccc23)NC(=O)[C@H](CO)NC(=O)[C@H](Cc2c[nH]c3ccccc23)NC(=O)[C@H](CC(N)=O)NC(=O)[C@H](CCCCN)NC(=O)[C@H](CCSC)NC(=O)[C@@H]2CSCCC(=O)N3CN(CN(C3)C(=O)CCSC[C@H](NC(=O)[C@H](C)N)C(=O)N3CCC[C@H]3C(=O)N[C@@H](Cc3ccccc3)C(=O)NCC(=O)N2)C(=O)CCSC[C@@H](C(=O)N[C@@H](C)C(N)=O)NC(=O)[C@H](Cc2c[nH]c3ccccc23)NC1=O` [BCY428, A-(SEQ ID NO: 1)-A], the Ki on human Nectin-4 [1] stood at 61 nM. At human Nectin-4 [2], this compound displayed an equilibrium dissociation constant (Kd) of 334 nM.

Turning to `CC[C@H](C)[C@@H]([C@@H](CC(=O)N1CCC[C@H]1[C@H](OC)[C@@H](C)C(=O)N[C@H](C)[C@@H](O)c1ccccc1)OC)N(C)C(=O)[C@@H](NC(=O)[C@H](C(C)C)N(C)C(=O)OCc1ccc(NC(=O)[C@H](CCCNC(N)=O)NC(=O)[C@@H](NC(=O)CCCC(=O)NCCC(=O)N(C)CC(=O)N(C)CC(=O)N(C)CC(=O)N(C)CC(=O)N(C)CC(=O)N(C)CC(=O)N(C)CC(=O)N(C)CC(=O)N(C)CC(=O)N(C)CC(=O)N[C@H]2CSCCC(=O)N3CN4CN(C3)C(=O)CCSC[C@H](NC(=O)[C@@H](CC(=O)O)NC(=O)[C@H](Cc3ccccc3)NC(=O)[C@@H]3CCCN3C2=O)C(=O)N[C@@H](CCSC)C(=O)N[C@@H](CCCCNC(=N)N)C(=O)N[C@@H](CC(N)=O)C(=O)N[C@@H](Cc2c[nH]c3ccccc23)C(=O)N[C@@H](CO)C(=O)N[C@@H]([C@@H](C)O)C(=O)N2CCC[C@H]2C(=O)N[C@@H]([C@@H](C)CC)C(=O)N[C@@H](Cc2c[nH]c3ccccc23)C(=O)N[C@H](C(N)=O)CSCCC4=O)C(C)C)cc1)C(C)C` [BCY7825, MMAE-PABC-Cit-Val-Glutaryl-BCY7814] (I: [Sar][Sar][Sar][Sar][Sar][Sar][Sar][Sar][Sar][Sar]CPF[dD]CM[hArg]NWSTPIWC-NH2 / II: V[Cit][PABC][NMeV]V[Dil][Dolaproine]-X4; linker I:11-I:15-I:25 via TATA; linker I:N-II:N via X3), in the data set on HT-1376 xenograft, the “bodyweight (in words)” value is recorded as “maintained the bodyweight well”. Besides, at human Nectin-4 [2], binding was put at a Kd of 11.6 nM.
